Measurements from US7598255B2 (Janssen Pharmaceutica NV, priority 2005, dated 2009).
Counter-ions that a name gives are not always drawn.

Columns and labels:
5-HT2A receptor = 5-HT2A receptor (Homo sapiens, UniProt P28223); assay: Affinity for 5-HT2A receptor binding sites, radioligand binding with [3H]ketanserin; conditions: read-out: Ki 5-HT2A, rat cortex membranes (assay 2) or NIH3T3 h5-HT2A membranes (assay 3), table does not say which
Experimental: (§1) Sigmoidal inhibition curves were generated and fitted by nonlinear regression analysis (GraphPad Prism).
The affinity of the compounds for the rat 5-HT2A receptor was evaluated by competitive radioligand binding assay using [^3H]ketanserine as the radioligand. […] Brain tissue (rat cortex) was homogenized in 20 volumes per wet weight tissue of Tris-HCl buffer (50 mM, pH 7.4). The total membrane fraction was collected by centrifugation and washed by subsequent centrifugation runs (25 min at 25,000 g at 4° C.). Membranes were re-suspended in Tris-HCl buffer (50 mM, pH 7.4) containing 1 nM [^3H]ketanserin. Non-specific binding was estimated in the presence of 10 μM risperidone. The incubation was terminated by rapid filtration over Whatman GF/B filters pre-soaked in 0.1% polyethylenimine, and one washing step with 1 mL ice-cold Tris-HCl buffer, pH 7.4.

[1] = molecular target: T1, human recombinant 5-HT2C receptor (Homo sapiens, UniProt P28335); assay: Affinity for 5HT2 receptor binding sites, h5-HT2C, [3H]mesulergine; conditions: CHO h5-HT2C membranes
T1 sequence (P28335 33-458): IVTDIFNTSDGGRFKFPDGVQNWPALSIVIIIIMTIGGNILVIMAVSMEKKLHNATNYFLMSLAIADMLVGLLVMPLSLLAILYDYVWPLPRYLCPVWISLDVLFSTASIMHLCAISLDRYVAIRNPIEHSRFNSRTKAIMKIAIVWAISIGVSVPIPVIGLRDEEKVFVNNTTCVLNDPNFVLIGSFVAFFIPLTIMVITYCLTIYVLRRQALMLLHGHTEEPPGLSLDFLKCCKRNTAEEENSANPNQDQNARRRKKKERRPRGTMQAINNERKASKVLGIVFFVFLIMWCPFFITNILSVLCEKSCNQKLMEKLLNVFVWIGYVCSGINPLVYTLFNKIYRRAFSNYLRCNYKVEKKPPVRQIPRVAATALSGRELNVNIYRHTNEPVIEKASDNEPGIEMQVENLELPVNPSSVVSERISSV

5-HT2B receptor = 5-HT2B receptor (Homo sapiens, UniProt P41595); assay: Affinity for 5HT2 receptor binding sites, h5-HT2B, [3H]mesulergine; conditions: CHO h5-HT2B membranes
5-HT2B receptor, sequence (P41595 whole entry): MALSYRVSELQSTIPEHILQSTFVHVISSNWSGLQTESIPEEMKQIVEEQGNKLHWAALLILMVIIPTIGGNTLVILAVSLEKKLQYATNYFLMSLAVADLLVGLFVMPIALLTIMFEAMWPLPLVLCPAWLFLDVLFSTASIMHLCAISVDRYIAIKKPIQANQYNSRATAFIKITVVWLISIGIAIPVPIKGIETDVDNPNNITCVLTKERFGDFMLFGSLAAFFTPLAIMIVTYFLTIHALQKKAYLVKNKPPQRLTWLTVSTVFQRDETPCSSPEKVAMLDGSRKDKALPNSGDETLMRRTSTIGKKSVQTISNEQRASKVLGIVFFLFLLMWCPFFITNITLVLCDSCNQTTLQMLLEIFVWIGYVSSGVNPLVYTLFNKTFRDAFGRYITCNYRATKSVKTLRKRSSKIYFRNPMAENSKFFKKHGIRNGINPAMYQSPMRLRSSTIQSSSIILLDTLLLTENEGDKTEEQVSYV
Experimental: as §1
Receptor binding was performed using the human recombinant 5-HT2A (GB: X57830), 5-HT2B (GB: Z36748) and 5-HT2C (GB: M81778) receptors. The affinity of the compounds for the 3 different human 5-HT2 receptor subtypes was evaluated by competitive radioligand binding assays using [^3H]ketanserin (h5-HT2A) or [^3H]mesulergine (h5-HT2B and h5-HT2C). The assays were performed on membranes prepared from NIH3T3 stably transfected with h5-HT2A or CHO stably transfected with h5-HT2B and h5-HT2C.

rat 5-HT7a receptor = rat 5-HT7a receptor (Rattus norvegicus, UniProt P32305); assay: Affinity for 5-HT7 receptor binding sites, radioligand binding with [3H]5-CT; conditions: membranes of HEK-293 cells with rat 5-HT7a, 1 nM [3H]5-CT
rat 5-HT7a receptor, sequence (P32305 whole entry): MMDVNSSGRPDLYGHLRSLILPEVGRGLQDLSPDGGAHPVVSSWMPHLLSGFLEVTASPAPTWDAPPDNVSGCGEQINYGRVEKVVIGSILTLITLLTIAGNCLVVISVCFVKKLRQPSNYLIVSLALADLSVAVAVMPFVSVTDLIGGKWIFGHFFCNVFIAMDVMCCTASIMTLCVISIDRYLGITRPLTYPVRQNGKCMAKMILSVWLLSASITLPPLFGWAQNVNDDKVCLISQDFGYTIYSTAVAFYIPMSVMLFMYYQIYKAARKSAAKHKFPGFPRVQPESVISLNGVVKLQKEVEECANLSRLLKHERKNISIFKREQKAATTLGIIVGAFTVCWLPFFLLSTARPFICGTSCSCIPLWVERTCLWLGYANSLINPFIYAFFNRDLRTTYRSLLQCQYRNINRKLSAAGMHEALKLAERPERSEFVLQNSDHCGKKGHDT
Experimental: The affinity of the compounds described in this invention for the 5-HT7 receptor binding site was evaluated by single competition radioligand binding assay. The assay was performed on membranes prepared from HEK-293 cells that had been subjected to stable transfection with the rat 5-HT7a receptor (GB: NM022938). Cells were scraped from the culture plates, suspended in Tris-HCl 50 mM pH 7.5 and collected through centrifugation (1000 rpm for 5 min). The cell pellets were homogenized (Polytron, 15 s, setting 5) in 50 mM Tris-HCl (pH 7.5), 5 mM EDTA. Following centrifugation (15,000 rpm for 25 min), membranes (135 μg protein/mL) were resuspended in the same buffer and incubated for 60 min at RT with 1 nM [^3H]5-CT in the presence of increasing concentration of test compounds. Nonspecific binding was defined in the presence of 10 μM 5-HT. Incubation was stopped by rapid filtration using the cell harvester (Packard). Radioactivity was counted in a TopCount-NXT (Packard). Experiments were conducted in triplicate.

Row | Structure (SMILES) | Ki (5-HT2A receptor) | Ki [1] | Ki (5-HT2B receptor) | Ki (rat 5-HT7a receptor)
1 | N#Cc1ccc(-c2nc(Cc3ccc(F)cc3)nc3c2CNCC3)cc1 [Example 16, 4-[2-(4-Fluoro-benzyl)-5,6,7,8-tetrahydro-pyrido[4,3-d]pyrimidin-4-yl]-benzonitrile] | 2 µM | > 10 µM | > 10 µM | > 10 µM
2 | COc1ccc(-c2nc(C3CCCC3)nc3c2CNCC3)cc1 [Example 19, 2-Cyclopentyl-4-(4-methoxy-phenyl)-5,6,7,8-tetrahydro-pyrido[4,3-d]pyrimidine] | 0.1 µM | 0.2 µM | 0.14 µM | > 10 µM
3 | N#Cc1ccc(-c2nc(C3CCCC3)nc3c2CNCC3)cc1 [Example 20, 4-(2-Cyclopentyl-5,6,7,8-tetrahydro-pyrido[4,3-d]pyrimidin-4-yl)-benzonitrile] | 0.7 µM | > 10 µM | 1.2 µM | > 10 µM
4 | CC(C)c1nc2c(c(-c3ccc(F)cc3)n1)CN(C)CC2 [Example 22, 4-(4-Fluoro-phenyl)-2-isopropyl-6-methyl-5,6,7,8-tetrahydro-pyrido[4,3-d]pyrimidine] | 0.032 µM | 1.3 µM | 0.5 µM | > 10 µM
5 | CC(C)c1nc2c(c(-c3ccc(Cl)c(Cl)c3)n1)CNCC2 [Example 23, 4-(3,4-Dichloro-phenyl)-2-isopropyl-5,6,7,8-tetrahydro-pyrido[4,3-d]pyrimidine hydrochloride] | 0.5 µM | > 10 µM | > 10 µM | > 10 µM
6 | CC(C)c1nc2c(c(-c3ccc(F)c(F)c3)n1)CNCC2 [Example 24, 4-(3,4-Difluoro-phenyl)-2-isopropyl-5,6,7,8-tetrahydro-pyrido[4,3-d]pyrimidine hydrochloride] | 0.24 µM | > 10 µM | > 10 µM | > 10 µM
7 | CC(C)c1nc2c(c(-c3cccc(F)c3)n1)CNCC2 [Example 25, 4-(3-Fluoro-phenyl)-2-isopropyl-5,6,7,8-tetrahydro-pyrido[4,3-d]pyrimidine] | 0.3 µM | > 10 µM | > 10 µM | > 10 µM
8 | CC(C)c1nc2c(c(-c3ccccc3F)n1)CNCC2 [Example 26, 4-(2-Fluoro-phenyl)-2-isopropyl-5,6,7,8-tetrahydro-pyrido[4,3-d]pyrimidine] | 0.3 µM | > 10 µM | > 10 µM | > 10 µM
9 | CC(C)c1nc2c(c(-c3ccc(F)cc3F)n1)CNCC2 [Example 27, 4-(2,4-Difluoro-phenyl)-2-isopropyl-5,6,7,8-tetrahydro-pyrido[4,3-d]pyrimidine] | 0.06 µM | > 10 µM | > 10 µM | > 10 µM
10 | Cc1ccc(-c2nc(C(C)C)nc3c2CNCC3)cc1 [Example 28, 2-Isopropyl-4-p-tolyl-5,6,7,8-tetrahydro-pyrido[4,3-d]pyrimidine] | 0.1 µM | 3 µM | 0.4 µM | > 10 µM
11 | COc1ccc(-c2nc(C(C)C)nc3c2CNCC3)cc1 [Example 30, 2-Isopropyl-4-(4-methoxy-phenyl)-5,6,7,8-tetrahydro-pyrido[4,3-d]pyrimidine] | 0.8 µM | 2.5 µM | 1 µM | > 10 µM
12 | CC(C)c1nc2c(c(-c3ccccc3)n1)CNCC2 [Example 31, 2-Isopropyl-4-phenyl-5,6,7,8-tetrahydro-pyrido[4,3-d]pyrimidine] | 0.07 µM | > 10 µM | 2 µM | > 10 µM
13 | CC(C)c1nc2c(c(-c3ccc(C(F)(F)F)cc3)n1)CNCC2 [Example 32, 2-Isopropyl-4-(4-trifluoromethyl-phenyl)-5,6,7,8-tetrahydro-pyrido[4,3-d]pyrimidine] | 2 µM | > 10 µM | > 10 µM | > 10 µM
14 | CC(C)c1nc2c(c(-c3ccccc3Oc3ccccc3)n1)CNCC2 [Example 33, 2-Isopropyl-4-(2-phenoxy-phenyl)-5,6,7,8-tetrahydro-pyrido[4,3-d]pyrimidine] | > 10 µM | > 10 µM | > 10 µM | > 10 µM
15 | CC(C)Cc1nc2c(c(-c3ccsc3)n1)CNCC2 [Example 34, 2-Isobutyl-4-thiophen-3-yl-5,6,7,8-tetrahydro-pyrido[4,3-d]pyrimidine] | 0.15 µM | 1 µM | 0.4 µM | > 10 µM
16 | CC(C)Cc1nc2c(c(-c3cccs3)n1)CNCC2 [Example 35, 2-Isobutyl-4-thiophen-2-yl-5,6,7,8-tetrahydro-pyrido[4,3-d]pyrimidine] | 0.07 µM | 2 µM | 0.4 µM | 0.5 µM
17 | CC(C)Cc1nc2c(c(-c3ccncc3)n1)CNCC2 [Example 36, 2-Isobutyl-4-pyridin-4-yl-5,6,7,8-tetrahydro-pyrido[4,3-d]pyrimidine] | > 10 µM | > 10 µM | > 10 µM | > 10 µM
18 | Cc1ccc(-c2nc(CC(C)C)nc3c2CNCC3)cc1 [Example 38, 2-Isobutyl-4-p-tolyl-5,6,7,8-tetrahydro-pyrido[4,3-d]pyrimidine] | 0.04 µM | 0.8 µM | 0.05 µM | > 10 µM
19 | Cc1cc(-c2nc(CC(C)C)nc3c2CNCC3)ccc1F [Example 39, 4-(4-Fluoro-3-methyl-phenyl)-2-isobutyl-5,6,7,8-tetrahydro-pyrido[4,3-d]pyrimidine] | 0.15 µM | > 10 µM | > 10 µM | > 10 µM
20 | CC(C)Cc1nc2c(c(-c3ccc(C#N)cc3)n1)CNCC2 [Example 40, 4-(2-Isobutyl-5,6,7,8-tetrahydro-pyrido[4,3-d]pyrimidin-4-yl)-benzonitrile] | 0.5 µM | > 10 µM | > 10 µM | > 10 µM
21 | COc1ccc(-c2nc(CC(C)C)nc3c2CNCC3)cc1 [Example 41, 2-Isobutyl-4-(4-methoxy-phenyl)-5,6,7,8-tetrahydro-pyrido[4,3-d]pyrimidine] | 2 µM | 5 µM | 5 µM | > 10 µM
22 | CCC(C)c1nc2c(c(-c3ccccc3F)n1)CNCC2 (centres unmarked) [Example 42, 2-sec-Butyl-4-(2-fluoro-phenyl)-5,6,7,8-tetrahydro-pyrido[4,3-d]pyrimidine hydrochloride] | 0.12 µM | > 10 µM | > 10 µM | > 10 µM
23 | CCC(C)c1nc2c(c(-c3cccc(F)c3)n1)CNCC2 (centres unmarked) [Example 43, 2-sec-Butyl-4-(3-fluoro-phenyl)-5,6,7,8-tetrahydro-pyrido[4,3-d]pyrimidine] | 0.2 µM | > 10 µM | > 10 µM | > 10 µM
24 | CCC(C)c1nc2c(c(-c3ccc(OC)cc3)n1)CNCC2 (centres unmarked) [Example 44, 2-sec-Butyl-4-(4-methoxy-phenyl)-5,6,7,8-tetrahydro-pyrido[4,3-d]pyrimidine] | 0.4 µM | 1 µM | 0.5 µM | > 10 µM
25 | CCC(C)c1nc2c(c(-c3ccc(OC(F)(F)F)cc3)n1)CNCC2 (centres unmarked) [Example 45, 2-sec-Butyl-4-(4-trifluoromethoxy-phenyl)-5,6,7,8-tetrahydro-pyrido[4,3-d]pyrimidine] | > 10 µM | > 10 µM | > 10 µM | > 10 µM
26 | Cc1nc2c(c(-c3ccc(Cl)cc3)n1)CCNCC2 [Example 51, 4-(4-Chloro-phenyl)-2-methyl-6,7,8,9-tetrahydro-5H-pyrimido[4,5-d]azepine] | 0.47 µM | 9 µM | 0.14 µM | > 10 µM
27 | Cc1nc2c(c(-c3ccccc3)n1)CCNCC2 [Example 52, 2-Methyl-4-phenyl-6,7,8,9-tetrahydro-5H-pyrimido[4,5-d]azepine] | 0.725 µM | 9 µM | 1.15 µM | > 10 µM
28 | Cc1nc2c(c(-c3cccc(Cl)c3)n1)CCNCC2 [Example 53, 4-(3-Chloro-phenyl)-2-methyl-6,7,8,9-tetrahydro-5H-pyrimido[4,5-d]azepine] | 1 µM | > 10 µM | > 10 µM | > 10 µM
29 | Cc1ccc(-c2nc(C(C)C)nc3c2CCCNC3)cc1 [Example 66, 2-Isopropyl-4-p-tolyl-6,7,8,9-tetrahydro-5H-pyrimido[4,5-c]azepine hydrochloride] | 0.008 µM | 0.145 µM | 0.03 µM | 0.3 µM
